Experiments:
[1] = target: T1, Resistin-CAP1 binding (Homo sapiens, UniProt Q9HD89); assay: Resistin-CAP1 competitive binding assay (enzyme immunological method); conditions: for binding inhibitory activity of Resistin-CAP1: 25 μM, 50 μM, and 100 μM, FIG. 8; for Resistin-CAP1 binding inhibitory effect: in words, FIG. 5a-5c
T1 sequence (Q9HD89 19-108): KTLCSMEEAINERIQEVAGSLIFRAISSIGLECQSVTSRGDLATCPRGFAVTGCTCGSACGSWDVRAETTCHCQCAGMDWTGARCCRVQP
Description: Recombinant CAP-1 protein was attached to a plate for immunoassay overnight, washed, and then the attachment of other proteins was blocked with 1% BSA/PBS solution, and the recombinant Resistin to which mouse Fc was attached and the sample were pre-reacted for 1 hour. Then, the solution was dispensed on the plate and reacted at room temperature for 2 hours. After washing the plate, HRP to be attached to the mFc of Resistin bound to CAP-1 was dispensed and reacted for 1 hour. After washing, the substrate was dispensed and reacted for 30 minutes by HRP, and absorbance was measured at a wavelength of 450 nm with a microplate meter.

[2] = test system: Resistin-induced TNF-α production in THP-1 cells; assay: TNF-alpha assay: Resistin-induced TNF-α production in THP-1 cells (ELISA); type: cell-based, human; conditions: for inhibitory effect on TNF-α induced by Resistin: in words, summary of Table 3b
Description: TNF-alpha assay was performed to examine the anti-inflammatory effect induced by the Resistin-CAP1 binding on the Elaeocarpus petiolatus extracts, fractions, and single compounds isolated therefrom.
After culturing for 1 hour, 2 μg/mL of human recombinant Resistin (Biovision) was treated and further cultured for 6 hours. Thereafter, the supernatant was recovered and stored at −70° C.
For TNF-alpha assay, Human TNF-alpha ELISA kit (BD bioscience) was used and analyzed according to the manufacturer's protocol.

[3] = test system: THP-1 cells; assay: Cell viability of THP-1 cells (CytoX)
Description: After 1 hour, each sample was treated at a concentration of 5 μM. After culturing for 24 hours, 5 μL of CytoX (LPS solution, Korea) solution was added into each well and incubated for another 4 hours. Then, absorbance was measured at 450 nm. The cell viability was calculated according to the following equation with the value of the negative control treated with DMSO as 100%.

[4] = 10 μg/mL, RETN +, THP-1 cells, isolated compounds

Row | Molecule | binding inhibitory activity of Resistin-CAP1 [1] | Resistin-CAP1 binding inhibitory effect [1] | TNF-α Inhibition Rate (%, Average ± Standard Deviation) ([2]; 5 μg/mL, RETN +, THP-1 cells) [%] | TNF-α Inhibition Rate (%, Average ± Standard Deviation) [2, 4] [%] | TNF-α Inhibition Rate (%, Average ± Standard Deviation) ([2]; 20 μg/mL, RETN +, THP-1 cells) [%] | inhibitory effect on TNF-α induced by Resistin [2] | Viability (%, Average ± Standard Deviation) ([3]; 2.5 μg/mL) [%] | Viability (%, Average ± Standard Deviation) ([3]; 5 μg/mL) [%] | Viability (%, Average ± Standard Deviation) ([3]; 10 μg/mL, isolated compounds) [%] | Viability (%, Average ± Standard Deviation) ([3]; 20 μg/mL) [%] | inhibition at 5 µg/mL ([2]; Homo sapiens, 5 μg/mL, RETN +, THP-1 cells, read-out: TNF-α Inhibition Rate (%, Average ± Standard Deviation)) [%] | inhibition at 10 µg/mL ([2]; Homo sapiens, 10 μg/mL, RETN +, THP-1 cells, isolated compounds, read-out: TNF-α Inhibition Rate (%, Average ± Standard Deviation)) [%] | inhibition at 20 µg/mL ([2]; Homo sapiens, 20 μg/mL, RETN +, THP-1 cells, read-out: TNF-α Inhibition Rate (%, Average ± Standard Deviation)) [%]
1 | O=c1c(O)c(-c2cc(O)c(O)c(O)c2)oc2cc(O)cc(O)c12 [myricetin, Myricetin, reference compound] | no inhibitory activity | – | – | – | – | – | – | – | – | – | – | – | –
2 | C[C@H]1O[C@@H](Oc2c(-c3cc(O)c(O)c(O)c3)oc3cc(O)cc(O)c3c2=O)[C@@H](O)[C@@H](O)[C@@H]1O [Myricetin-3-O-α-L-rhamnoside (5E2), Myricetin-3-O-α-L-rhamnoside] | inhibited the binding of Resistin-CAP1 in a concentration-dependent manner | concentration-dependent inhibitory effect | 28.57 ± 6.79 | 24.13 ± 3.31 | 33.64 ± 9.21 | exhibited an inhibitory effect on TNF-α production | 99.54 ± 3.22 | 106.14 ± 0.93 | 98.85 ± 1.07 | 100.12 ± 0.64 | – | – | –
3 | O=c1oc2c(O)c(O)cc3c(=O)oc4c(O)c(O)cc1c4c23 [Ellagic acid (6D), Ellagic acid] | – | concentration-dependent inhibitory effect | – | – | – | exhibited an inhibitory effect on TNF-α production | 96.89 ± 0.05 | 98.73 ± 0.91 | 94.38 ± 0.13 | 89.21 ± 1.01 | 16.4 ± 5.12 | 27.4 ± 4.5 | -18.6 ± 3.16
4 | Isorhamnetin-3-O-β-D-hexoside [Isorhamnetin-3-O-β-D-hexoside (6E)] | – | concentration-dependent inhibitory effect | 43.06 ± 10.44 | 51.29 ± 5.76 | 59.53 ± 9.02 | exhibited an inhibitory effect on TNF-α production | 101.71 ± 4.56 | 101.88 ± 0.10 | 95.02 ± 0.20 | 94.72 ± 0.28 | – | – | –

Reference: US20230144344A1, “COMPOSITION FOR PREVENTING OR TREATING CARDIOVASCULAR AND METABOLIC DISEASES COMPRISING ELAEOCARPUS PETIOLATUS” (SEOUL NATIONAL UNIVERSITY HOSPITAL, priority 2020, published 2023)
